BindingDB's records for doi:10.1021/acs.jmedchem.0c00961 (Rheinische Friedrich-Wilhelms-University Bonn, 2020)

How the values were obtained:
[1] = Inhibition of human ABCG2-mediated multidrug resistance in MDCK2 cells assessed as potentiation of SN-38-induced cytotoxicity by measuring half maximal reversal concentration after 72 hrs by MTT assay
[2] = Inhibition of human ABCB1-mediated multidrug resistance in human A2780/ADR cells assessed as potentiation of doxorubicin-induced cytotoxicity by measuring half maximal reversal concentration after 72 hrs by MTT assay
[3] = Inhibition of human ABCC1-mediated multidrug resistance in MDCK2 cells assessed as potentiation of doxorubicin-induced cytotoxicity by measuring half maximal reversal concentration after 72 hrs by MTT assay

SMILES	EC50 [1] [nM]	EC50 [2] [nM]	EC50 [3] [nM]
Cc1cc(Nc2ccc(C#N)c(C)c2)nc(-c2ccccc2)n1	11		
Cc1cc(Nc2ccc([N+](=O)[O-])cc2)nc(-c2ccccc2)n1	16		
Cc1cc(Nc2ccc(F)c(C#N)c2)nc(-c2ccccc2)n1	21		
Cc1cc(Nc2ccc(C#N)c(Br)c2)nc(-c2ccccc2)n1	15		
Cc1cc(Nc2ccc(C#N)c(C(F)(F)F)c2)nc(-c2ccccc2)n1	15		
Cc1cc(Nc2ccc3ncccc3c2)nc(-c2ccccc2)n1	16	8410	5150
